Like-named read-outs stand apart in the source and are kept apart here.
Tests used:
[1] = test system: X. laevis tadpoles; test: animal or person; assay type: in vivo; conditions: for EC50: Xenopus laevis, read-out: EC50 (95% CI); for observable toxicity in tadpoles / pharmacological end point in tadpoles: in vivo
Procedure: Behavioral activity was initially determined in albino X. laevis tadpoles (stages 45–47) as described previously ([29], [33]). All animal care and experimental procedures involving X. laevis tadpoles were carried out according to a protocol approved by the IACUC of the University of Pennsylvania.

[2] = target: T1, horse spleen apoferritin (Equus caballus, UniProt P02791); test: Isothermal titration calorimetry binding to apoferritin; conditions: one-site model, read-out: KD (95% CI), ITC
T1 construct: soluble protein model horse spleen apoferritin; from tissue; host or cells: horse spleen
T1 sequence (P02791 2-175 limits assumed): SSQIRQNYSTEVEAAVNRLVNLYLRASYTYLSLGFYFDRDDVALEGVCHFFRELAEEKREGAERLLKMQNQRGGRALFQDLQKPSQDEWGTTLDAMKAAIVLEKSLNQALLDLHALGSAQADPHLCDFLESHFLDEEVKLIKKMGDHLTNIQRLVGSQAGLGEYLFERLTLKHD
Procedure: Isothermal titration calorimetry isotherms for binding to soluble protein model horse spleen apoferritin were conducted as reported previously ([31]) and were resolved using a VP-isothermal titration calorimetry microcalorimeter (MicroCal, Inc., Northampton, MA). Origin 5.0 software was used to best-fit thermodynamic parameters to the heat profiles.

[3] = target: T1, horse spleen apoferritin; test: 1-AMA displacement fluorescence assay; assay type: binding
Procedure: 1-AMA fluorescence inhibition has been reported as a reliable measurement of anesthetic occupation of the horse spleen apoferritin anesthetic site ([64]). 1-AMA displacement studies were conducted as described previously ([29]). The fluorescence intensity versus concentration data were fitted to variable slope Hill models to obtain the IC50 and Hill slope. The KD value was calculated using the Cheng-Prusoff equation to correct for the presence of the 1-AMA competitors.

[4] = target: T2, α1β2γ2L GABAA receptors (Homo sapiens, UniProt P14867+P47870); test: cell-based
T2 construct: expressed in transfected cells; host or cells: Xenopus laevis oocytes
T2 sequence (P14867 28-456): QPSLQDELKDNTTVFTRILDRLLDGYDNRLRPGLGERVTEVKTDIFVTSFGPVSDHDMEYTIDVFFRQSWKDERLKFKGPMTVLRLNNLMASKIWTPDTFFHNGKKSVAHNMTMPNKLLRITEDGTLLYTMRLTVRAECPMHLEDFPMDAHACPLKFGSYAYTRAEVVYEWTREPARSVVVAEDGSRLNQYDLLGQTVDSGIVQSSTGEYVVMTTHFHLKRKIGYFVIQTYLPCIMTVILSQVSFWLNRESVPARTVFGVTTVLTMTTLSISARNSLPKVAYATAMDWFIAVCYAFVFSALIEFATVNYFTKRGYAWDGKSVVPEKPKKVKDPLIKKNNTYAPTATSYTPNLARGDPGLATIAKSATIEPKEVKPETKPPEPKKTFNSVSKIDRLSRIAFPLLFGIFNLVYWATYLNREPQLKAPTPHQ
T2 sequence (P47870 25-512 limits assumed): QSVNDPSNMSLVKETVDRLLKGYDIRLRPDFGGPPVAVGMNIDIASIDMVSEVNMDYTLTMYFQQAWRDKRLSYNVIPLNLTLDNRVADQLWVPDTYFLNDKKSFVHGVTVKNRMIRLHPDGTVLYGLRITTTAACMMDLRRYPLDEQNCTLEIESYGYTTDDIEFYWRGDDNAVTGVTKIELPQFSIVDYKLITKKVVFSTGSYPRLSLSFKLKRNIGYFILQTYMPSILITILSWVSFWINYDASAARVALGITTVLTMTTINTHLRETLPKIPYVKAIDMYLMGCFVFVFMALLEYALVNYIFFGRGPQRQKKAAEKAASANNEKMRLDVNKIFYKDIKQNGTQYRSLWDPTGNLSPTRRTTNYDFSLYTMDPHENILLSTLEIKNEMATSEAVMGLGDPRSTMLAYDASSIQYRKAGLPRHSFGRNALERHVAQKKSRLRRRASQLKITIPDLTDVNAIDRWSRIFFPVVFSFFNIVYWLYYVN
T2 sequence (P18507 40-475 partner): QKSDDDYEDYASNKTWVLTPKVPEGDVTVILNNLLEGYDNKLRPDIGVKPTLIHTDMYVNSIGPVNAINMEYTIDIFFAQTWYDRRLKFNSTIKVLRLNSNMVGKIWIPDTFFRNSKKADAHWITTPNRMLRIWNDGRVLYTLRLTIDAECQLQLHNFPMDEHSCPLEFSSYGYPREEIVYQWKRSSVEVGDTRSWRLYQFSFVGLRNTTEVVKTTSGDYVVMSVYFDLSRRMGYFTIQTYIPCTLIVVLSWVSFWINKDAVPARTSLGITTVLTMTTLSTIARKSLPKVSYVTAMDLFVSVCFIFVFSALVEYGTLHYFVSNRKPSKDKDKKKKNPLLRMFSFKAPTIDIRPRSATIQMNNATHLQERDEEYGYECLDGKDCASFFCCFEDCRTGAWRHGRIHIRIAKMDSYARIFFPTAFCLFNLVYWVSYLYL
Procedure: GABAA receptor expression in X. laevis oocytes was completed as described previously ([40]). cDNAs for GABAA receptor α1, β2, and γ2L subunits were generously provided by Dr. Robert Pearce (University of Wisconsin). All animal care and experimental procedures involving X. laevis frogs were carried out according to a protocol approved by the IACUC of Thomas Jefferson University. GABAA receptor currents expressed in X. laevis oocytes were recorded as reported previously ([40]). Data acquisition and initial analysis were performed using pClamp 9.2/10.3 (Molecular Devices, Sunnyvale, CA). Macroscopic currents were low-pass filtered at 1 kHz and digitized at 2 kHz. Data were fit to a sigmoidal dose-response curve with variable Hill slope.

[5] = Physicochemical properties (density)

Row | Compound | EC50 [1] [µM] | observable toxicity in tadpoles [1] | pharmacological end point in tadpoles [1] | Kd [2] [µM] | Hill slope (mean ± S.E.), 1-AMA displacement [3] | Kd [3] [µM] | EC50 [4] [µM] | Density [5] [g/mL] | Kd ([3]; fluorescence data derived from the Cheng-Prusoff equation, read-out: KD (95% CI), 1-AMA displacement) [µM] | EC50 ([4]; read-out: EC50 for positive modulation) [µM]
1 | CC(C)c1cccc(C(C)C)c1O [propofol, 2,6-diisopropylphenol, reference compound] | 0.9 | no observable toxicity | reversible hypnosis | 9 | −1.1 ± 0.33 | 2.4 | 10 | 0.96 |  | 
2 | C#CCOCc1ccc(C2(C(F)(F)F)N=N2)cc1O [AziPm-click (1), 2-((prop-2-yn-1-yloxy)methyl)-5-(3-(trifluoromethyl)-3H-diazirin-3-yl)phenol] | 6.1 | no observable toxicity | reversible hypnosis | 22 | −0.97 ± 0.39 |  |  | 1.19 | 4 | 49

Source: article PMC5034043 (The Journal of Biological Chemistry, 2016)
